# Reference: US20090156501A1, “IDENTIFICATION OF LIGANDS BY SELECTIVE AMPLIFICATION OF CELLS TRANSFECTED WITH RECEPTORS” (ACADIA PHARMACEUTICALS, INC., priority 1999, published 2009)
# Read-outs that look alike come from different tables or passages of the source.
# Legend:
# Assay type in all cases: cell-based
# FP prostanoid receptor = molecular target: T1, FP prostanoid receptor (Homo sapiens, UniProt P43088); test: Single Receptor Format amplification assay, prostanoid FP; settings: 7-9 doses in duplicate; read-out: Ligand EC50 nM, FP
# T1 construct: expressed in transfected cells; host or cells: NIH 3T3
# From the text: (§1) Receptors belonging to several functional categories have successfully been assayed using the general protocol for the Single Receptor Format described above. […] A diversity of signal transduction classes are also illustrated: G-protein coupled receptors, tyrosine kinase linked receptors, G-proteins and oncogenes. In a few of these cases, focus assays have been used to assay ligand interaction with the illustrated receptors.
# EP3 prostanoid receptor = molecular target: T2, EP3 prostanoid receptor (Homo sapiens, UniProt P43115); test: Single Receptor Format amplification assay, prostanoid EP3; settings: 7-9 doses in duplicate; read-out: Ligand EC50 nM, EP3
# T2 construct: expressed in transfected cells; host or cells: NIH 3T3
# T2 sequence (P43115 1-390): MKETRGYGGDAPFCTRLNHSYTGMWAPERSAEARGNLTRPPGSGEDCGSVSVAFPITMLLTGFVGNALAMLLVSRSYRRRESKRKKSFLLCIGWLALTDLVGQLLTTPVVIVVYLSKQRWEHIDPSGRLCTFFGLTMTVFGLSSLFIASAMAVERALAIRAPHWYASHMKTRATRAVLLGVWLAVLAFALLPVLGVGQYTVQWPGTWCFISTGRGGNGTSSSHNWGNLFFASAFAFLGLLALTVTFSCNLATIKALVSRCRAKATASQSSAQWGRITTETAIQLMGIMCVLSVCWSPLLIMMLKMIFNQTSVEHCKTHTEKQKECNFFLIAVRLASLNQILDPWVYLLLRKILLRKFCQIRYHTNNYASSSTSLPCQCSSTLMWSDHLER
# From the text: as §1
# m4 muscarinic receptor = molecular target: T3, m4 muscarinic receptor (Homo sapiens, UniProt P08173); test: Single Receptor Format amplification assay, β-galactosidase marker, NIH 3T3 cells transfected with m4 and chimeric G-protein; settings: for EC50: cotransfected with Gqi5, mean ±SE of 2-4 experiments, read-out: Muscarinic Agonists EC50 [μM], m4
# T3 construct: expressed in transfected cells; host or cells: NIH 3T3
# T3 sequence (P08173 1-479): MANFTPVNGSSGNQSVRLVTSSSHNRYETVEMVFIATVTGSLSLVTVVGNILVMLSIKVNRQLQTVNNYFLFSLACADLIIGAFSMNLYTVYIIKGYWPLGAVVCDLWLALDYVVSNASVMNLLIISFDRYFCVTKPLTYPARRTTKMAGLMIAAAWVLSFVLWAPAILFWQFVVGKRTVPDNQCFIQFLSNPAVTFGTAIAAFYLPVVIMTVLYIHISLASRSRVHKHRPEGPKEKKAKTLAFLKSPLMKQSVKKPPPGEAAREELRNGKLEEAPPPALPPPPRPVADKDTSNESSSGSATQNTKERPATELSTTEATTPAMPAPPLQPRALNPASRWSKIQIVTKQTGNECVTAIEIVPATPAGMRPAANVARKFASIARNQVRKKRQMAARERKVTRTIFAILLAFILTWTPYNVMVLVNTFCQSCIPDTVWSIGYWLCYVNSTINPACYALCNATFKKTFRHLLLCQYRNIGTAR
# m5 muscarinic receptor = molecular target: T4, m5 muscarinic receptor (Homo sapiens, UniProt P08912); test: Single Receptor Format amplification assay, β-galactosidase marker, NIH 3T3 cells transfected with m5; settings: for Muscarinic Agonists (% Max), m5: maximum response as % of carbachol response (carbachol 5 μM)
# T4 construct: expressed in transfected cells; host or cells: NIH 3T3
# T4 sequence (P08912 1-532): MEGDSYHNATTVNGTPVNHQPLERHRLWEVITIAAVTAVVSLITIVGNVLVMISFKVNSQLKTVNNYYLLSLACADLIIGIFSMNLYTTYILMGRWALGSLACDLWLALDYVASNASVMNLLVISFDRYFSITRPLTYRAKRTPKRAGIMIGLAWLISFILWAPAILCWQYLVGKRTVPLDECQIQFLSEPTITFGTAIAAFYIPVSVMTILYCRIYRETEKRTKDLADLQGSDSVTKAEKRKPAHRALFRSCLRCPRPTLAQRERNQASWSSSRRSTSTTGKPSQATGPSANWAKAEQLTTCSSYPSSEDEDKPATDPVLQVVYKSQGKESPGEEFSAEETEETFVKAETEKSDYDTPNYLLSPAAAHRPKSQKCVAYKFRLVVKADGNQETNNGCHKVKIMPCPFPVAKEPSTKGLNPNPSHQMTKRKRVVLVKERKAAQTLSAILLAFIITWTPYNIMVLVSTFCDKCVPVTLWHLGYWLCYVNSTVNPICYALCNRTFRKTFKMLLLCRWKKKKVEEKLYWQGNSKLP
# m2 muscarinic receptor = molecular target: T5, m2 muscarinic receptor (Homo sapiens, UniProt P08172); test: Single Receptor Format amplification assay, β-galactosidase marker, NIH 3T3 cells transfected with m2 and Gq-i5
# T5 construct: expressed in transfected cells; host or cells: NIH 3T3
# T5 sequence (P08172 1-466): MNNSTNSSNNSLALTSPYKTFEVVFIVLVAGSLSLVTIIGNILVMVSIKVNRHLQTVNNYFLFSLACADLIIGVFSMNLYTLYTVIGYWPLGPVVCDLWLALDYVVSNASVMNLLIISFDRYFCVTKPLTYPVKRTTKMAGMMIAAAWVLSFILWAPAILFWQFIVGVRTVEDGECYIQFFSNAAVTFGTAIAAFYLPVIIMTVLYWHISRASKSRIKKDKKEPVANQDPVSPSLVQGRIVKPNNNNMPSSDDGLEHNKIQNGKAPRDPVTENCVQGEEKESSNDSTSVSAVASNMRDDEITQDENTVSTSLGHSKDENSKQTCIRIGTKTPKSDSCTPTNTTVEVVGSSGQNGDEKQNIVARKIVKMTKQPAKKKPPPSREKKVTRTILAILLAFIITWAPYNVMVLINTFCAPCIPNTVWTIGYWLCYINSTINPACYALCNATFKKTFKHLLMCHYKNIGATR
# m1 muscarinic receptor = molecular target: T6, m1 muscarinic receptor (Homo sapiens, UniProt P11229); test: Single Receptor Format amplification assay, β-galactosidase marker, NIH 3T3 cells transfected with m1
# T6 construct: expressed in transfected cells; host or cells: NIH 3T3
# T6 sequence (P11229 1-460): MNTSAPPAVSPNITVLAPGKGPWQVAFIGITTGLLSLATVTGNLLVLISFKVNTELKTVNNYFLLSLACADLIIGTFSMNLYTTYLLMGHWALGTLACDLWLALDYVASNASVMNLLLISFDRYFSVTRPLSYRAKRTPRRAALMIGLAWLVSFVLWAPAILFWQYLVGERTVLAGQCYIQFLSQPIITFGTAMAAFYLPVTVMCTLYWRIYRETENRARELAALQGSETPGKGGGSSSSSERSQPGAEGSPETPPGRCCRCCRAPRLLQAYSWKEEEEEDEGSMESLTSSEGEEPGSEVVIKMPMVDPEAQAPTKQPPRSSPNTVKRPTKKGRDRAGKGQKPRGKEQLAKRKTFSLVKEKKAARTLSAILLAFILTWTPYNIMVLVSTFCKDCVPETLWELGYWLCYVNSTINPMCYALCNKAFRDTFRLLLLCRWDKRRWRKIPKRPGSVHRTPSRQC
# m3 muscarinic receptor = molecular target: T7, m3 muscarinic receptor (Homo sapiens, UniProt P20309); test: Single Receptor Format amplification assay, β-galactosidase marker, NIH 3T3 cells transfected with m3; settings: for EC50: β-gal amplification, mean ±SE of 2-4 experiments, read-out: Muscarinic Agonists EC50 [μM], m3
# T7 construct: expressed in transfected cells; host or cells: NIH 3T3
# trk C receptor = molecular target: T8, trk C receptor (Homo sapiens, UniProt Q16288); test: Single Receptor Format amplification assay, trk C
# T8 construct: expressed in transfected cells; host or cells: NIH 3T3
# From the text: Also illustrated is the dose-response relationships of the related neutrotrophic factor NT3.
# as §1
# trk A receptor = molecular target: T9, trk A receptor (Homo sapiens, UniProt P04629); test: Single Receptor Format amplification assay, trk A; settings: 7-9 doses in duplicate
# T9 construct: expressed in transfected cells; host or cells: NIH 3T3
# [1] = maximum response as % of carbachol response (carbachol 10 μM), Gqi5
# T7 sequence (P20309 whole entry): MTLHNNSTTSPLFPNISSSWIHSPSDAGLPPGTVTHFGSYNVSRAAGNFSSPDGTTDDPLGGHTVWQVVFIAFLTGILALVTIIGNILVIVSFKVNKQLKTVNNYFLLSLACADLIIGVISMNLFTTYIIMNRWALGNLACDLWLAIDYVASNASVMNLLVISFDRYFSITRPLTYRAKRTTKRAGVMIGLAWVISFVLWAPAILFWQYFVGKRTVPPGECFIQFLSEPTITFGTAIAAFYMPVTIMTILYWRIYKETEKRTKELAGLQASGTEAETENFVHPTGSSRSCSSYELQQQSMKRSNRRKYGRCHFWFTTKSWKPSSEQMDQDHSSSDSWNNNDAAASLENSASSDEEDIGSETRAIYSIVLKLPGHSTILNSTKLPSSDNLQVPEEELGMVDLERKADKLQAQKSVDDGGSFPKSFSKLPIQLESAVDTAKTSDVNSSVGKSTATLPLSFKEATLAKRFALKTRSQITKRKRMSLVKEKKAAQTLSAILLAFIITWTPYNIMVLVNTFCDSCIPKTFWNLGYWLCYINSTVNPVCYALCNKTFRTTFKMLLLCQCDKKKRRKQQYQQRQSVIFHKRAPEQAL
# T1 sequence (P43088 whole entry): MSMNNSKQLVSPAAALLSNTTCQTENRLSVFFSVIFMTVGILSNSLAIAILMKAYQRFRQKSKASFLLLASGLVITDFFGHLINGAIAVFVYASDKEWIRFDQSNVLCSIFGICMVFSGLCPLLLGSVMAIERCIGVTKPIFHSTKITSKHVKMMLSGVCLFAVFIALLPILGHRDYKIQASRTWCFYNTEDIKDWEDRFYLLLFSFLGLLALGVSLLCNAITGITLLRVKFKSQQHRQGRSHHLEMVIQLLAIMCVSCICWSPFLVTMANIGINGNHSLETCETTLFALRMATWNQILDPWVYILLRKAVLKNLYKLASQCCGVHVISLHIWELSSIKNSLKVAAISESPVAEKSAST
# T9 sequence (P04629 33-790 isoform P04629-2 limits assumed): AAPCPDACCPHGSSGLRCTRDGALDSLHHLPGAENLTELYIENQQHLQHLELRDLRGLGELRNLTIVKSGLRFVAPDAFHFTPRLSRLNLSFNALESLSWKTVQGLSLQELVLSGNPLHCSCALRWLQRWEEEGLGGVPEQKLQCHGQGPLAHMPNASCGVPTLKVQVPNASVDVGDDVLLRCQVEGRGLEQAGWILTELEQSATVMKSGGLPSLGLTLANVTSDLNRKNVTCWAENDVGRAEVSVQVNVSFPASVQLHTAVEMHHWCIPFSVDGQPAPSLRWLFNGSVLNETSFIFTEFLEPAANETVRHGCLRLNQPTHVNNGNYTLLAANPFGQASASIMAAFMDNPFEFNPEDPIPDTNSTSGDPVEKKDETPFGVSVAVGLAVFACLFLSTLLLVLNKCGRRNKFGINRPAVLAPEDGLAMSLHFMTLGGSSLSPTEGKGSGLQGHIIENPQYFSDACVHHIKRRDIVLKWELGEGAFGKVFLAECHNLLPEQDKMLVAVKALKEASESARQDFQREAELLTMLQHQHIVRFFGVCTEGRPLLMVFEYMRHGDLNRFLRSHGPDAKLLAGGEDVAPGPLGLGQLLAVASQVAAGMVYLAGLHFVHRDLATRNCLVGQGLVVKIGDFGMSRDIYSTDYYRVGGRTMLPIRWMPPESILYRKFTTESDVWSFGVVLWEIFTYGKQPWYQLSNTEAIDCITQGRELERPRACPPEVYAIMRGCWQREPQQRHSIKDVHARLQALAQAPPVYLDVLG
compound,measurement,setting,value
O=C(O)CCC/C=C\C[C@@H]1[C@@H](/C=C/[C@@H](O)COc2cccc(C(F)(F)F)c2)[C@H](O)C[C@@H]1O (racemic) [Fluprostenol],EC50,FP prostanoid receptor,2 ± 1 nM
O=C(O)CCCCCC[C@H]1C(=O)CC[C@@H]1/C=C/[C@@H](O)COc1ccccc1 [MB28767],EC50,EP3 prostanoid receptor,270 ± 190 nM
C[N+](C)(C)CC#CCOC(=O)Nc1cccc(Cl)c1.[Cl-] [McN A-434],EC50,m4 muscarinic receptor,0.12 ± 0.02 µM
same,"Muscarinic Agonists (% Max), m4",m4 muscarinic receptor; [1],(84 ± 3) %
same,"Muscarinic Agonists (% Max), m5",m5 muscarinic receptor,(57 ± 4) %
same,EC50,"m5 muscarinic receptor; β-gal amplification, mean ±SE of 2-4 experiments, read-out: Muscarinic Agonists EC50 [μM], m5",1 ± 0.3 µM
same,EC50,"m2 muscarinic receptor; cotransfected with Gqi5, mean ±SE of 2-4 experiments, read-out: Muscarinic Agonists EC50 [μM], m2",1.5 ± 0.6 µM
same,"Muscarinic Agonists (% Max), m2",m2 muscarinic receptor; [1],(108 ± 7) %
same,"Muscarinic Agonists (% Max), m1",m1 muscarinic receptor; maximum response as % of carbachol response (carbachol 200 μM),(43 ± 2) %
same,EC50,"m1 muscarinic receptor; β-gal amplification, mean ±SE of 2-4 experiments, read-out: Muscarinic Agonists EC50 [μM], m1",1.1 ± 0.2 µM
same,"Muscarinic Agonists (% Max), m3",m3 muscarinic receptor; maximum response as % of carbachol response (carbachol 100 μM),(38 ± 2) %
same,EC50,m3 muscarinic receptor,2.2 µM
C[N+](C)(C)CCOC(N)=O [carbachol],"Muscarinic Agonists (% Max), m4",m4 muscarinic receptor; [1],(100) %
same,"Muscarinic Agonists (% Max), m5",m5 muscarinic receptor,(100) %
same,"Muscarinic Agonists (% Max), m2",m2 muscarinic receptor; [1],(100) %
C[C@@H]1O[C@H](C[N+](C)(C)C)C[C@H]1O [muscarine],"Muscarinic Agonists (% Max), m4",m4 muscarinic receptor,(69 ± 2) %
same,EC50,m4 muscarinic receptor,0.32 ± 0.15 µM
same,EC50,m5 muscarinic receptor,0.39 ± 0.18 µM
same,"Muscarinic Agonists (% Max), m5",m5 muscarinic receptor,(86 ± 0) %
same,"Muscarinic Agonists (% Max), m2",m2 muscarinic receptor,(76 ± 1) %
same,"Muscarinic Agonists (% Max), m1",m1 muscarinic receptor,(84 ± 4) %
same,"Muscarinic Agonists (% Max), m3",m3 muscarinic receptor,(84 ± 6) %
same,EC50,m3 muscarinic receptor,0.56 ± 0.25 µM
O=C1CCCN1CC#CCN1CCCC1 [oxotremorine],"Muscarinic Agonists (% Max), m4",m4 muscarinic receptor,(102 ± 3) %
same,"Muscarinic Agonists (% Max), m5",m5 muscarinic receptor,(74 ± 2) %
same,"Muscarinic Agonists (% Max), m2",m2 muscarinic receptor,(100 ± 5) %
same,"Muscarinic Agonists (% Max), m1",m1 muscarinic receptor,(75 ± 10) %
same,"Muscarinic Agonists (% Max), m3",m3 muscarinic receptor,(66 ± 5) %
NGF: Nerve growth factor (NGF) is an agonist for the trk A receptor,amplification response in cells transfected with trk C,trk C receptor; data not shown,not able to induce amplification responses
NT3: related neutrotrophic factor NT3,"Ligand EC50, trk C",trk C receptor; 7-9 doses in duplicate,0.0024 ± 0.0011 µg/mL
same,"Ligand EC50, trk A",trk A receptor,>1 µg/mL
